# Laboratory results published in article PMC8398451, “Molecular Engineering of Curcumin, an Active Constituent of Curcuma longa L. (Turmeric) of the Family Zingiberaceae with Improved Antiproliferative Activity” (Plants, 2021).
# Assays:
# K-562 = assay: NCI antiproliferative SRB assay, Leukemia panel; assay type: cell-based, Human; conditions: one dose 10 µM
# A549/ATCC = assay: NCI antiproliferative SRB assay, Non-Small Cell Lung Cancer panel; assay type: cell-based, Human; conditions: one dose 10 µM
# HOP-62 = assay: as above; assay type: cell-based, Human; conditions: one dose 10 µM
# NCI-H23 = assay: as above; assay type: cell-based, Human; conditions: one dose 10 µM
# NCI-H460 = assay: as above; assay type: cell-based, Human; conditions: one dose 10 µM
# HCC-2998 = assay: NCI antiproliferative SRB assay, Colon Cancer panel; assay type: cell-based, Human; conditions: one dose 10 µM
# SW-620 = assay: as above; assay type: cell-based, Human; conditions: one dose 10 µM
# U251 = assay: NCI antiproliferative SRB assay, CNS Cancer panel; assay type: cell-based; conditions: U251; one dose 10 µM
# LOX IMVI = assay: NCI antiproliferative SRB assay, Melanoma panel; assay type: cell-based, Human; conditions: one dose 10 µM
# MALME-3M = assay: NCI antiproliferative SRB assay, Melanoma panel; assay type: cell-based, Human; conditions: one dose 10 µM
# MDA-MB-435 = assay: NCI antiproliferative SRB assay, Melanoma panel; assay type: cell-based; conditions: one dose 10 µM
# SK-MEL-28 = assay: NCI antiproliferative SRB assay, Melanoma panel; assay type: cell-based, Human; conditions: one dose 10 µM
# SK-MEL-5 = assay: NCI antiproliferative SRB assay, Melanoma panel; assay type: cell-based, Human; conditions: one dose 10 µM
# UACC-257 = assay: NCI antiproliferative SRB assay, Melanoma panel; assay type: cell-based, Human; conditions: one dose 10 µM
# IGROV1 = assay: NCI antiproliferative SRB assay, Ovarian Cancer panel; assay type: cell-based, Human; conditions: one dose 10 µM
# OVCAR-3 = assay: as above; assay type: cell-based, Human; conditions: one dose 10 µM
# SK-OV-3 = assay: as above; assay type: cell-based, Human; conditions: one dose 10 µM
# 786–0 = assay: NCI antiproliferative SRB assay, Renal Cancer panel; assay type: cell-based, Human; conditions: one dose 10 µM
# CAKI-1 = assay: as above; assay type: cell-based, Human; conditions: one dose 10 µM
# UO-31 = assay: as above; assay type: cell-based, Human; conditions: one dose 10 µM
# PC-3 = assay: NCI antiproliferative SRB assay, Prostate Cancer panel; assay type: cell-based, Human; conditions: one dose 10 µM
# DU-145 = assay: as above; assay type: cell-based, Human; conditions: one dose 10 µM
# MCF7 = assay: NCI antiproliferative SRB assay, Breast Cancer panel; assay type: cell-based, Human; conditions: one dose 10 µM
# HS 578T = assay: as above; assay type: cell-based, Human; conditions: one dose 10 µM
# Leukemia cell line panel = assay: NCI antiproliferative assay, panel summary; assay type: cell-based, Human; conditions: 10 µM
# [1] = test system: Colon Cancer cell line panel; assay: NCI antiproliferative assay, panel summary; assay type: cell-based, Human; conditions: 10 µM
# [2] = test system: CNS Cancer cell line panel; assay: NCI antiproliferative assay, panel summary; assay type: cell-based, Human; conditions: 10 µM
# [3] = test system: Ovarian Cancer cell line panel; assay: NCI antiproliferative assay, panel summary; assay type: cell-based, Human; conditions: 10 µM
# [4] = test system: Renal Cancer cell line panel; assay: NCI antiproliferative assay, panel summary; assay type: cell-based, Human; conditions: Renal Cancer panel; 10 µM
# 60 NCI cancer cell lines = assay: NCI antiproliferative assay, summary over all lines; assay type: cell-based; conditions: mean over cell lines; one dose 10 µM
structure (smiles),measurement,setting,value
COc1ccc(/C=C/c2cc(/C=C/c3ccc(OC)c(O)c3)n(-c3cccc(Cl)c3)c(=S)n2)cc1O [3a],%GI,K-562,40.77%
same,GP (growth percent),K-562,59.23
same,%GI,A549/ATCC,27.44%
same,GP (growth percent),A549/ATCC,72.56
same,%GI,HOP-62,4.94%
same,GP (growth percent),HOP-62,95.06
same,%GI,NCI-H23,9.05%
same,GP (growth percent),NCI-H23,90.95
same,%GI,NCI-H460,10.49%
same,GP (growth percent),NCI-H460,89.51
same,%GI,HCC-2998,−3.70%
same,GP (growth percent),HCC-2998,103.70
same,%GI,SW-620,10.52%
same,GP (growth percent),SW-620,89.48
same,%GI,U251,40.59%
same,GP (growth percent),U251,59.41
same,%GI,LOX IMVI,21.36%
same,GP (growth percent),LOX IMVI,78.64
same,%GI,MALME-3M,10.54%
same,GP (growth percent),MALME-3M,89.46
same,%GI,MDA-MB-435,18.68%
same,GP (growth percent),MDA-MB-435,81.32
same,%GI,SK-MEL-28,7.56%
same,GP (growth percent),SK-MEL-28,92.44
same,%GI,SK-MEL-5,21.01%
same,GP (growth percent),SK-MEL-5,78.99
same,%GI,UACC-257,47.09%
same,GP (growth percent),UACC-257,52.91
same,%GI,IGROV1,4.74%
same,GP (growth percent),IGROV1,95.26
same,%GI,OVCAR-3,8.70%
same,GP (growth percent),OVCAR-3,91.30
same,%GI,SK-OV-3,−0.88%
same,GP (growth percent),SK-OV-3,100.88
same,%GI,786–0,5.38%
same,GP (growth percent),786–0,94.62
same,%GI,CAKI-1,20.96%
same,GP (growth percent),CAKI-1,79.04
same,%GI,UO-31,28.74%
same,GP (growth percent),UO-31,71.26
same,%GI,PC-3,10.79%
same,GP (growth percent),PC-3,89.21
same,%GI,DU-145,19.16%
same,GP (growth percent),DU-145,80.84
same,%GI,MCF7,32.09%
same,GP (growth percent),MCF7,67.91
same,%GI,HS 578T,15.67%
same,GP (growth percent),HS 578T,84.33
same,Mean % GI,Leukemia cell line panel,41.39%
same,Mean % GI,[1],16.72%
same,Mean % GI,[2],14.74%
same,Mean % GI,[3],7.04%
same,Mean % GI,[4],7.23%
same,Mean % GI,60 NCI cancer cell lines,17.68%
same,Mean GP,60 NCI cancer cell lines,82.32
